These results are taken from patent US20110190503A1, “Thiazolopyridin-2-yloxy-phenyl and thiazolopyrazin-2-yloxy-phenyl amines as modulators of leukotriene A4 hydrolase” (Janssen Pharmaceutical NV, priority 2008, published 2011).

The structures appear in SMILES notation. Where a name gives a salt, the structure may show the parent alone.

One may read the IC50 as the concentration that inhibits the measured activity by half.

The assay concerns the target T1, recombinant human LTA4 hydrolase (rhLTA4H) (Homo sapiens, UniProt P09960).
T1 construct: made in house; host or cells: Spodoptera frugiperda (Sf-9) cells, recombinant baculovirus (pFastBac1)
T1 sequence (P09960 1-611): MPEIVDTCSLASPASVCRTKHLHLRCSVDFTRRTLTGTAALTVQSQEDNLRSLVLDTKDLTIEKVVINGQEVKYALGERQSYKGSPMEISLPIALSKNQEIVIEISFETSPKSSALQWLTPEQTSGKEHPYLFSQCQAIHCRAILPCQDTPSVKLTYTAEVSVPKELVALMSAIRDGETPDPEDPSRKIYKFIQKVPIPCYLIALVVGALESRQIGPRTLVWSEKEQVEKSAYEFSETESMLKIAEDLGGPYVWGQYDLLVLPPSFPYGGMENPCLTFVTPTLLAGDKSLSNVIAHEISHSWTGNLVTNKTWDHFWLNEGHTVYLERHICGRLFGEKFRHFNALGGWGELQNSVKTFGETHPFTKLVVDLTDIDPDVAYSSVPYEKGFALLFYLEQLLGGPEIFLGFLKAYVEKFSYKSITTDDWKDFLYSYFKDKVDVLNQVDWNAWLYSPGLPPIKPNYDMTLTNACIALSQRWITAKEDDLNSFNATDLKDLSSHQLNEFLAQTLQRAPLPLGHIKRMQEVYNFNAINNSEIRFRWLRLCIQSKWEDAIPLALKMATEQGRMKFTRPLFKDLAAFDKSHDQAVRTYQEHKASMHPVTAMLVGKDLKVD
Briefly: Recombinant human LTA4 hydrolase assay for LTA4 hydrolase inhibitor activity. The following applies: rhLTA4H, LTA4 substrate, LTB4 by immunoassay; single determination or average; read-out: IC50. The class given is biochemical. How it is done:
Assay 1: Recombinant Human LTA4 Hydrolase Assay for LTA4 Hydrolase Inhibitor Activity
Compounds of the present invention were tested for LTA4 hydrolase inhibitor activity against recombinant human LTA4 hydrolase (rhLTA4H). Vectors were prepared and used to express rhLTA4H essentially as follows: LTA4 hydrolase encoding DNA was amplified by polymerase chain reaction (PCR) using a human placental cDNA library as a template. […] The amplified 1.9 kb DNA fragment encoding LTA4 hydrolase was isolated and cloned into the pFastBac1 vector (Invitrogen). Recombinant baculovirus was generated as described by the manufacturer, and used to infect Spodoptera frugiperda (Sf-9) cells. […] The purified enzyme solution was adjusted to contain 0.29 mg/mL LTA4 hydrolase, 50 mM Tris (pH 8.0), 150 mM NaCl, 5 mM dithiothreitol, 50% glycerol, and EDTA-free Complete protease inhibitor cocktail (Roche).
LTA4 substrate was prepared from the methyl ester of LTA4 (Cayman Chemical) by treatment with 67 equiv of NaOH under nitrogen at rt for 40 min. The LTA4 substrate in its free acid form was kept frozen at −80° C. until needed. Each compound was diluted to different concentrations in assay buffer (from Assay Designs) containing 10% DMSO. A 25-μL aliquot of each compound dilution was incubated for 10 min at rt with an equal volume of assay buffer containing 10 ng of recombinant human LTA4H. The solution was then adjusted to 200 μL with assay buffer. […] Each reaction was carried out at rt for 30 min. The reaction was stopped by diluting 10 μL of the reaction mixture with 200 μL of assay buffer. LTB4 was quantified in the diluted sample by a commercially available enzyme-linked immunoassay (Cayman Chemical Co.), as recommended by the manufacturer. Positive controls, under essentially identical conditions but without addition of an inhibitor compound, and negative controls, containing all assay components except enzyme, were routinely run in each experiment. IC50 values were determined by nonlinear regression of the activity data at different compound concentrations using Graphpad Prism 4.0, one site binding competition.
The values presented here are the result of a single determination or an average of two or more determinations, as indicated in parentheses following each value. For compounds tested three or more times, the average value is followed by the standard deviation
On to `Cc1ccnc2nc(Oc3ccc(CN4CCC(NC(=O)c5ccncc5)CC4)cc3)sc12` [Example 206, N-(1-{4-[(7-Methyl[1,3]thiazolo[4,5-b]pyridin-2-yl)oxy]benzyl}piperidin-4-yl)pyridine-4-carboxamide], for which the IC50 turned out to be 0.035 µM. For the compound `c1cncc(OC2CCN(Cc3ccc(Oc4nc5ccncc5s4)cc3)CC2)c1` [Example 248, 2-(4-{[4-(Pyridin-3-yloxy)piperidin-1-yl]methyl}phenoxy)[1,3]thiazolo[5,4-c]pyridine], the IC50 worked out at 1.16 µM. As to `OC1(c2ccc(Cl)cc2)CCN(CCOc2ccc(Oc3nc4cccnc4s3)cc2)CC1` [Example 39, 4-(4-Chlorophenyl)-1-{2-[4-([1,3]thiazolo[5,4-b]pyridin-2-yloxy)phenoxy]ethyl}piperidin-4-ol], the IC50 came out at 0.26 µM.

Consider `O=C(C1CC1)N1CCN(CCc2ccc(Oc3nc4ncc(Cl)cc4s3)cc2)CC1` [Example 197, 6-Chloro-2-[(4-{2-[4-(cyclopropylcarbonyl)piperazin-1-yl]ethyl}phenyl)oxy][1,3]thiazolo[4,5-b]pyridine], for which the half-inhibitory concentration (IC50) is 0.36 µM. Then `O=C1CCCN1C1CCN(CCc2ccc(Oc3nc4cccnc4s3)cc2)CC1` [Example 68, 1-(1-{2-[4-([1,3]Thiazolo[5,4-b]pyridin-2-yloxy)phenyl]ethyl}piperidin-4-yl)pyrrolidin-2-one], with 0.28 µM; and `c1cnc(N2CCN(Cc3ccc(Oc4nc5nccnc5s4)cc3)CC2)nc1` [Example 167, 2-({4-[(4-Pyrimidin-2-ylpiperazin-1-yl)methyl]phenyl}oxy)[1,3]thiazolo[4,5-b]pyrazine], with 0.432 µM; and `CC(=O)N1C[C@@H]2C[C@H]1CN2Cc1ccc(Oc2nc3c(C)ccnc3s2)cc1` [Example 281, 2-(4-{[(1S,4S)-5-Acetyl-2,5-diazabicyclo[2.2.1]hept-2-yl]methyl}phenoxy)-7-methyl[1,3]thiazolo[5,4-b]pyridine], with above 10 µM. Turning to `O=C(NC1CCN(CCc2ccc(Oc3nc4ccncc4s3)cc2)CC1)C1CC1` [Example 192, N-(1-{2-[4-([1,3]Thiazolo[5,4-c]pyridin-2-yloxy)phenyl]ethyl}piperidin-4-yl)cyclopropanecarboxamide], the IC50 came to 0.507 µM. Then `Cc1cnc2nc(Oc3ccc(OCCN4CCC(NC(=O)C(C)C)CC4)cc3)sc2c1` [Example 140, 2-Methyl-N-[1-(2-{4-[(6-methyl[1,3]thiazolo[4,5-b]pyridin-2-yl)oxy]phenoxy}ethyl)piperidin-4-yl]propanamide], with 0.138 µM; and `O=C1CCCN1C1CCN(CCOc2ccc(Oc3nc4cccnc4s3)cc2)CC1` [Example 43, 1-(1-{2-[4-([1,3]Thiazolo[5,4-b]pyridin-2-yloxy)phenoxy]ethyl}piperidin-4-yl)pyrrolidin-2-one], with 0.14 µM.

Take `CC(=O)N1[C@@H]2CC[C@H]1CN(CCc1ccc(Oc3nc4ncccc4s3)cc1)C2` [Example 212, meso-2-(4-{2-[8-Acetyl-3,8-diazabicyclo[3.2.1]oct-3-yl]ethyl}phenoxy)[1,3]thiazolo[4,5-b]pyridine]: the IC50 stood at 0.018 µM. Then `c1cc2nc(Oc3ccc(CN4CCCCC4)cc3)sc2cn1` [Example 114, 2-[4-(Piperidin-1-ylmethyl)phenoxy][1,3]thiazolo[5,4-c]pyridine], with 0.68 µM.

Consider `c1cc2sc(Oc3ccc(CCN4CCCC4)cc3)nc2cn1` [Example 221, 2-[4-(2-Pyrrolidin-1-ylethyl)phenoxy][1,3]thiazolo[4,5-c]pyridine], for which the IC50 is 0.181 µM. Regarding `CN(C)C1CCN(Cc2ccc(Oc3nc4ncccc4s3)cc2)CC1` [Example 259, N,N-Dimethyl-1-[4-([1,3]thiazolo[4,5-b]pyridin-2-yloxy)benzyl]piperidin-4-amine], the IC50 came to 0.14 µM. As for `OCC1CN(Cc2ccc(Oc3nc4ncccc4s3)cc2)CCO1` (stereo not shown) [Example 82, {4-[4-([1,3]Thiazolo[4,5-b]pyridin-2-yloxy)benzyl]morpholin-2-yl}methanol], the IC50 came out at 0.14 µM. In the case of `Cc1ccnc2sc(Oc3ccc(CN4CCCCC4)cc3)nc12` [Example 280, 7-Methyl-2-[4-(piperidin-1-ylmethyl)phenoxy][1,3]thiazolo[5,4-b]pyridine], the IC50 was above 10 µM. In the case of `CC(=O)N1[C@@H]2CC[C@H]1C[C@H](NCCc1ccc(Oc3nc4ncccc4s3)cc1)C2` [Example 214, meso-(3-exo)-8-Acetyl-N-{2-[4-([1,3]thiazolo[4,5-b]pyridin-2-yloxy)phenyl]ethyl}-8-azabicyclo[3.2.1]octan-3-amine], the IC50 stood at 0.003 µM.

As to `CC(=O)N1CC2CN(CCc3ccc(Oc4nc5cccnc5s4)cc3)CC2C1` (stereo not shown) [Example 69, 2-{4-[2-(5-Acetylhexahydropyrrolo[3,4-c]pyrrol-2(1H)-yl)ethyl]phenoxy}[1,3]thiazolo[5,4-b]pyridine], the IC50 amounted to 0.12 µM. In the case of `CC(=O)N1C[C@@H]2C[C@H]1CN2Cc1ccc(Oc2nc3ccc(C)nc3s2)cc1` [Example 118, 2-(4-{[(1S,4S)-5-Acetyl-2,5-diazabicyclo[2.2.1]hept-2-yl]methyl}phenoxy)-5-methyl[1,3]thiazolo[5,4-b]pyridine], the IC50 turned out to be 3.74 µM.

For the compound `O=C(O)C1CCN(CCOc2ccc(Oc3nc4cccnc4s3)cc2)CC1` [Example 44, 1-{2-[4-([1,3]Thiazolo[5,4-b]pyridin-2-yloxy)phenoxy]ethyl}piperidine-4-carboxylic acid], the IC50 amounted to 0.66 µM. In the case of `CC(C)(C)C1CCN(Cc2ccc(Oc3nc4ncc(Cl)cc4s3)cc2)CC1` [Example 218, 2-{4-[(4-tert-Butylpiperidin-1-yl)methyl]phenoxy}-6-chloro[1,3]thiazolo[4,5-b]pyridine], the IC50 was determined as 0.212 µM. In the case of `O=C(O)C1CCN(Cc2ccc(Oc3nc4cccnc4s3)cc2)CC1` [Example 132, 1-[4-([1,3]Thiazolo[5,4-b]pyridin-2-yloxy)benzyl]piperidine-4-carboxylic acid], the IC50 was 1 µM.

For the compound `COCC(=O)NC1CCN(Cc2ccc(Oc3nc4ncc(C)cc4s3)cc2)CC1` [Example 216, 2-Methoxy-N-(1-{4-[(6-methyl[1,3]thiazolo[4,5-b]pyridin-2-yl)oxy]benzyl}piperidin-4-yl)acetamide], the IC50 is 0.06 µM. For `Cc1ccnc2nc(Oc3ccc(CN4[C@@H]5CC[C@H]4CN(S(C)(=O)=O)C5)cc3)sc12` [Example 205, meso-7-Methyl-2-(4-{[3-(methylsulfonyl)-3,8-diazabicyclo[3.2.1]oct-8-yl]methyl}phenoxy)[1,3]thiazolo[4,5-b]pyridine], the IC50 amounted to 0.049 µM. Take `CS(=O)(=O)N1C[C@H]2CC[C@@H](C1)N2CCOc1ccc(Oc2nc3ncccc3s2)cc1` [Example 213, meso-2-(4-{2-[3-(Methylsulfonyl)-3,8-diazabicyclo[3.2.1]oct-8-yl]ethoxy}phenoxy)[1,3]thiazolo[4,5-b]pyridine]: the concentration for half-maximal inhibition (IC50) came out at 0.034 µM.

In the case of `OC1(c2cccc(C(F)(F)F)c2)CCN(CCOc2ccc(Oc3nc4cccnc4s3)cc2)CC1` [Example 37, 1-{2-[4-([1,3]Thiazolo[5,4-b]pyridin-2-yloxy)phenoxy]ethyl}-4-[3-(trifluoromethyl)phenyl]piperidin-4-ol], the IC50 worked out at 0.16 µM. In the case of `Cc1ccnc2nc(Oc3ccc(OCCN4[C@@H]5CC[C@H]4C[C@@H](NC(=O)CN)C5)cc3)sc12` [Example 166, meso-N-{(3-endo)-8-[2-({4-[(7-Methyl[1,3]thiazolo[4,5-b]pyridin-2-yl)oxy]phenyl}oxy)ethyl]-8-azabicyclo[3.2.1]oct-3-yl}glycinamide hydrochloride], the concentration for half-maximal inhibition (IC50) amounted to 0.114 µM. Take `CCCN(Cc1ccc(Oc2nc3cnccc3s2)cc1)CC1CC1` [Example 186, N-(Cyclopropylmethyl)-N-{[4-([1,3]thiazolo[4,5-c]pyridin-2-yloxy)phenyl]methyl}propan-1-amine]: the IC50 came to 0.263 µM.
